Test results taken from patent publication US8158635B2, “Solid forms comprising 4-[9-(tetrahydro-furan-3-yl)-8-(2,4,6-trifluoro-phenylamino)-9H-purin-2-ylamino]-cyclohexan-1-ol, compositions thereof, and uses therewith” (Signal Pharmaceuticals, LLC, priority 2006, dated 2012).
≈ marks a conversion by molar mass, not a printed value. Like-named read-outs stand apart in the source and are kept apart here.

Assay: Approximate solubilities of solid forms in solvents
Type: physicochemical
Settings: thermodynamic from solid, about 25° C., at least 24 hours, read-out: Approximate Solubility (mg/mL) of Form A of the Free Base of Compound I
Experimental: A weighed sample comprising either the free base or the HCl salt of Compound I was treated with 2 mL of a solvent (either HPLC or reagent grade). The resulting mixture was agitated for at least 24 hours at about 25° C. When all of the solids were dissolved by visual inspection, the estimated solubility was calculated. The solubility was estimated from these experiments based on the total volume of solvent used to give a complete solution. The actual solubility may be greater than those calculated due to the use of a large amount of solvent or a slow rate of dissolution. A known volume of filtrate was evaporated to dryness and the weight of the residue was measured.

solubility (2-propanol, 25 °C, organic solvent or mixture, column 1, solvent 2-Propanol): 15.7 mg/mL (≈ 34.9 mM) | solubility (2-propanol, 25 °C, organic solvent or mixture, solvent 2-Propanol): 6.39 mg/mL (≈ 14.2 mM) | solubility (absolute ethanol, 25 °C, organic solvent or mixture, column 1, solvent Absolute ethanol): 47.1 mg/mL (≈ 105 mM) | solubility (absolute ethanol, 25 °C, organic solvent or mixture, solvent Absolute ethanol): > 50 mg/mL | solubility (acetone, 25 °C, organic solvent or mixture, column 1, solvent Acetone): 11.6 mg/mL (≈ 25.8 mM) | solubility (acetone, 25 °C, organic solvent or mixture, solvent Acetone): 1.14 mg/mL (≈ 2.54 mM) | solubility (acetonitrile, 25 °C, organic solvent or mixture, column 1, solvent Acetonitrile): 2.58 mg/mL (≈ 5.75 mM) | solubility (acetonitrile, 25 °C, organic solvent or mixture, solvent Acetonitrile): 1.56 mg/mL (≈ 3.48 mM) | solubility (ethanol/water (1/1), 25 °C, aqueous with cosolvent or surfactant or cyclodextrin, column 1, solvent Ethanol/Water (1/1)): 11.6 mg/mL (≈ 25.9 mM) | solubility (ethanol/water (1/1), 25 °C, aqueous with cosolvent or surfactant or cyclodextrin, solvent Ethanol/Water (1/1)): > 50 mg/mL | solubility (ethyl acetate, 25 °C, organic solvent or mixture, column 1, solvent Ethyl acetate): 3.91 mg/mL (≈ 8.72 mM) | solubility (ethyl acetate, 25 °C, organic solvent or mixture, solvent Ethyl acetate): 0.02 mg/mL (≈ 0.0446 mM) | solubility (heptane, 25 °C, organic solvent or mixture, column 1, solvent Heptane): 0.55 mg/mL (≈ 1.23 mM) | solubility (heptane, 25 °C, organic solvent or mixture, solvent Heptane): 0.51 mg/mL (≈ 1.14 mM) | solubility (methanol, 25 °C, organic solvent or mixture, column 1, solvent Methanol): > 50 mg/mL | solubility (methanol, 25 °C, organic solvent or mixture, solvent Methanol): > 50 mg/mL | solubility (methyl ethyl ketone, 25 °C, organic solvent or mixture, column 1, solvent Methyl ethyl ketone): 8.74 mg/mL (≈ 19.5 mM) | solubility (methyl ethyl ketone, 25 °C, organic solvent or mixture, solvent Methyl ethyl ketone): 0.68 mg/mL (≈ 1.52 mM) | solubility (methyl t-butyl ether, 25 °C, organic solvent or mixture, column 1, solvent Methyl t-butyl ether): 1.1 mg/mL (≈ 2.45 mM) | solubility (methylene chloride, 25 °C, organic solvent or mixture, column 1, solvent Methylene chloride): 11.6 mg/mL (≈ 25.8 mM) | solubility (methylene chloride, 25 °C, organic solvent or mixture, solvent Methylene chloride): 5 mg/mL (≈ 11.1 mM) | solubility (n-butanol, 25 °C, organic solvent or mixture, column 1, solvent n-Butanol): 19.3 mg/mL (≈ 43.1 mM) | solubility (n-butanol, 25 °C, organic solvent or mixture, solvent n-Butanol): 7.5 mg/mL (≈ 16.7 mM) | solubility (organic solvent or mixture, solvent Methyl t-butyl ether): 0.46 mg/mL (≈ 1.03 mM) | solubility (tetrahydrofuran, 25 °C, organic solvent or mixture, column 1, solvent Tetrahydrofuran): > 50 mg/mL | solubility (tetrahydrofuran, 25 °C, organic solvent or mixture, solvent Tetrahydrofuran): 2.03 mg/mL (≈ 4.53 mM) | solubility (toluene, 25 °C, organic solvent or mixture, column 1, solvent Toluene): 0.36 mg/mL (≈ 0.803 mM) | solubility (toluene, 25 °C, organic solvent or mixture, solvent Toluene): 0.04 mg/mL (≈ 0.0892 mM) | solubility (water, 25 °C, water, column 1, solvent Water): 0.41 mg/mL (≈ 0.914 mM) | solubility (water, 25 °C, water, solvent Water): > 50 mg/mL
Compound: O[C@H]1CC[C@H](Nc2ncc3nc(Nc4c(F)cc(F)cc4F)n([C@H]4CCOC4)c3n2)CC1 (stereo in doubt) [Form A of the Free Base of Compound I, 4-[9-(tetrahydro-furan-3-yl)-8-(2,4,6-trifluoro-phenylamino)-9H-purin-2-ylamino]-cyclohexan-1-ol]
